For one series, the target named is T1, H1 histamine receptor (Cavia porcellus, UniProt P31389).
T1 construct: The longitudinal muscle was isolated from the intact ileum of guinea-pigs; from tissue; host or cells: guinea-pig ileum, longitudinal muscle (Hartly, male 250-400 g)
As to the kind of experiment: In vitro antihistaminic activity, isolated guinea-pig ileum longitudinal muscle, histamine concentration-response shift (Schild plot). In kind it is cell-based. The conditions noted are these: negative log of the molar concentration of antagonist which shifts the histamine concentration-response curve 2X to the right, 1 h incubation, read-out: pA2 (converted). How it is done:
In vitro antihistiminic activity: The longitudinal muscle was isolated from the intact ileum of guinea-pigs (Hartly, male 250-400 g) and placed in an organ bath under 300 mg tension. After one hour of equilibration, cumulative concentration-response curves (Van Rossum, J. M., Arch. Int. Pharmacodyn. Ther. 143, 299-330, 1963) to histamine were obtained. Following washing, the tissues were incubated for one hour with the test compound and then a second histamine concentration-response curve was run. Shifts to the right of the agonist concentration-response curve produced by the antagonists were used to construct Schild plots (Arunlakshana, O. and Schild, H. O., Br. J. Pharmacol: 14, 48-58, 1959). Regression of Log (dr-1) on Log [B], where dr is an equiactive response in the presence and absence of antagonist and [B] is the molar concentration of antagonist, allowed an estimate of pA2, i.e. the negative log of the concentration of antagonist which shifts the control histamine concentration-response curve 2X to the right.

The conditions of series [1]: background statement; cited from earlier work.
The conditions of series [2]: antihistamines now in use; some patients; cited from earlier work.

T1 sequence (P31389 whole entry): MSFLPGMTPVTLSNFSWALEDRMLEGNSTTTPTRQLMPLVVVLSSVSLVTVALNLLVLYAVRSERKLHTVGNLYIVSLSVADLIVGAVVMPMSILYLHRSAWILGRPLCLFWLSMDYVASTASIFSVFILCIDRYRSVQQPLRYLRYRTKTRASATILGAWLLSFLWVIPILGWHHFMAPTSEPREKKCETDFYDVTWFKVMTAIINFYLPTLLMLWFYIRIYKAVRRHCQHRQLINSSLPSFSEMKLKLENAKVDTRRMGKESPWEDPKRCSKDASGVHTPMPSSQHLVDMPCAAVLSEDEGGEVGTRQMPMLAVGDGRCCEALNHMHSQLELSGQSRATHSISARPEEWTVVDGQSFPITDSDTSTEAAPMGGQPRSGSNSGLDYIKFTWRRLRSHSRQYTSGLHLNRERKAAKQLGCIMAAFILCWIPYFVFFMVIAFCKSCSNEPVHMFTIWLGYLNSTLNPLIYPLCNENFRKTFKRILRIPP

As for `COc1ccc(/C(=C\CN2CCCC2)c2cccc(/C=C/C(=O)O)n2)cc1` [C, (E)-3-{6-[3-pyrrolidino-1-(4-methoxyphenyl)prop-1E-enyl]-2-pyridyl}acrylicacid], on H1 histamine receptor, the Kb is 1.26 nM. The same measure, in the same setting: the value for `Cc1ccc(/C(=C\CN2CCCC2)c2cccc(CCC(=O)O)n2)cc1` [Compound A, 3-{6-[3-Pyrrolidino-1-(4-tolyl)prop-1E-enyl]-2-pyridyl}propionic acid] was 0.631 nM. As to `Cc1ccc(/C(=C\CN(C)C)c2cccc(/C=C/C(=O)O)n2)cc1` [Compound B, (E)-3-{6-[3-Dimethylamino-1-(4-tolyl)prop-1E-enyl]-2-pyridyl}acrylic acid], the Kb on H1 histamine receptor is 6.31 nM.

For the compound `O=C(O)/C=C/c1cccc(/C(=C/CN2CCCC2)c2ccc(Cl)cc2)n1` [D, (E)-3-{6-[1-(4-chlorophenyl)-3-pyrrolidinoprop-1E-enyl]-2-pyridyl}acrylicacid], on H1 histamine receptor, the Kb was 1 nM. On the same count and under the same terms, next, `O=C(O)/C=C/c1cccc(/C(=C/CN2CCCC2)c2ccccc2)n1` [E, (E)-3-[6-(1-phenyl-3-pyrrolidinoprop-1E-enyl)-2-pyridyl]acrylic acid]: 39.8 nM; `Cc1ccc(/C(=C\CN2CCCC2)c2cccc(C(=O)O)n2)cc1` [F, 6-[3-pyrrolidino-1-(4-tolyl)prop-1E-enyl]pyridine-2-carboxylic acid]: 1.26 nM. Consider `Cc1ccc(/C(=C\CN2CCCC2)c2ccccn2)cc1` [Triprolidine, (E)-1-(4-methylphenyl)-1-(2-pyridyl)-3-pyrrolidinoprop-1-ene], for which the antihistamine potency result in series [1] is given as “one of the most potent antihistamines available”. Regarding `CC(CN1c2ccccc2Sc2ccccc21)N(C)C` (centres unmarked) [promethazine], the sedation or drowsiness entry in series [2] was “may cause sedation or drowsiness in some patients”.

(Values after patent US4657918A, “3-[6-[3-pyrrolidino-1-(4-tolyl)prop-1e-enyl]-2-pyridyl]propionic acid and derivatives having anti-histaminic activity” (priority 1982, dated 1987).)
